Data taken from patent US7666901B2, “Analogs of 17-hydroxywortmannin as PI3K inhibitors” (Wyeth, priority 2004, dated 2010).
In brackets after ≈: the same amount, converted by molar mass.

Assays:
[1] = target: T1, Human TOR (Homo sapiens, UniProt P42345); assay: Human TOR (mTOR) kinase assay, DELFIA format; assay type: biochemical
T1 construct: FLAG
Method: The PI3K/AKT/TOR pathway is critical for cell proliferation, growth, survival, and angiogensis. Accordingly, compounds of the present invention may also be useful to inhibit TOR activity. Similar in vivo and in vitro assays to those described above with reference to PI3K can be used to determine the minimum concentration of compound sufficient to inhibit TOR. A human TOR assay and a Rat1-IGF1 assay as described in Examples 67 and 68, respectively was performed with some embodiments of the invention. The results of these assays are shown below in Tables 1 and 2.
Human TOR assays (See Toral-Barza, et al. Biochem Biophys. Res. Commun. 2005 Jun. 24; 332(1):304-10) with purified enzyme are performed in 96-well plates by DELFIA format as follows. Enzymes are first diluted in kinase assay buffer (10 mM Hepes (pH 7.4), 50 mM NaCl, 50 mM b-glycerophosphate, 10 mM MnCl2, 0.5 mM DTT, 0.25 mM microcystin LR, and […] BSA). To each well, 12 mL of the diluted enzyme is mixed briefly with 0.5 mL test inhibitor or control vehicle dimethylsulfoxide (DMSO). The kinase reaction is initiated by adding 12.5 mL kinase assay buffer containing ATP and His6-S6K to give a final reaction volume of 25 mL containing 800 ng/mL FLAG-TOR, […] ATP and […] His6-S6K. The reaction plate is incubated for 2 hours (linear at 1-6 hours) at room temperature with gentle shaking and then terminated by adding 25 mL Stop buffer (20 mM Hepes (pH 7.4), 20 mM EDTA, 20 mM EGTA). The DELFIA detection of the phosphorylated (Thr-389) His6-S6K is performed at room temperature using a monoclonal anti-P(T389)-p70S6K antibody (1A5, Cell Signaling) labeled with Europium-N1-ITC (Eu) (10.4 Eu per antibody, PerkinElmer). The DELFIA Assay buffer and Enhancement solution can be purchased from PerkinElmer. 45 mL of the terminated kinase reaction mixture is transferred to a MaxiSorp plate (Nunc) containing 55 mL PBS. The His6-S6K is allowed to attach for 2 hours after which the wells are aspirated and washed once with PBS. 100 mL of DELFIA Assay buffer with 40 ng/mL Eu-P(T389)-S6K antibody is added. The antibody binding is continued for 1 hour with gentle agitation. The wells are then aspirated and washed 4 times with PBS containing 0.05% Tween-20 (PBST). […] of DELFIA Enhancement solution is added to each well and the plates are read in a PerkinElmer Victor model plate reader. Data obtained is used to calculate enzymatic activity and enzyme inhibition by potential inhibitors.

[2] = system: phosphor-AKT (S473) in Rat1 cells; assay: Rat1-IGF1 assay (IGF-1 induced phospho-AKT immunoblot); assay type: cell-based, rat; details: Rattus norvegicus
Method: Rat1 cells are plated in 6-well culture plates and serum-starved for 24 hours. Serum-starved cells are treated either with control vehicle or with various concentrations of 17-HWT for 2 hours, stimulated by IGF-1 (100 ng/mL) for 30 minutes. Total cellular lysates are prepared using NuPAGE-LDS sample buffer (Invitrogen), sonicated and then clarified by centrifugation. Equal amounts of proteins are subject to immunoblotting analysis using NuPAGE electrophoresis system and probed with phosphor-AKT (S473), total AKT antibodies (Signaling Technology).

[3] = system: LNCaP (human prostate carcinoma); assay: Cell proliferation (MTS) assay, LNCaP; assay type: cell-based; details: Homo sapiens, LNCaP, 72 h, three days treatment
Method: (§1) Results of cell proliferation assays for exemplary compounds are shown below in Tables 1 and 2. Cell lines LNCaP (human prostate carcinoma), MDA468 (human breast cancer cell), MDA435 (human breast adenocarcinoma), and DU145 (human prostate carcinoma[…]) were purchased from American Type Culture Collection (ATCC) (Rockville, Md.). Cells were cultured in RPMI Medium 1640 containing 10% fetal bovine serum (FBS) in a 37° C. incubator containing 5% CO2. All cell culture reagents were purchased from Gibco-BRL (Grand Island, N.Y.). Cells were plated in 96-well culture plates at about 3000 cells per well. One day following plating, compounds or vehicle controls (buffer only) were added to cells. Proliferation assays were performed three days post initiation of treatment.
(§2) For a non-radioactive cell proliferation assay, viable cell densities are determined by measuring metabolic conversion (by viable cells) of the dye MTS tatrazolium dye, a cell proliferation assay known by one of skill in the art (MTS assay), a previously established cell proliferation assay. The assay is performed using an assay kit (Promega Corp., Madison, Wis.). The assay plates are incubated for 1-2 hours, and the results are read in a 96-well format plate reader by measuring absorbance at 490 nm. Effect of each compound is calculated as a percentage of control cell growth obtained from vehicle-treated cells grown in the same plate.

[4] = system: MDA468 (human breast cancer cell); assay: Cell proliferation (MTS) assay, MDA468; assay type: cell-based; details: Homo sapiens, 72 h, three days treatment
Method: as §1, §2

[5] = system: MDA435 (human breast adenocarcinoma); assay: Cell proliferation (MTS) assay, MDA435; assay type: cell-based; details: Homo sapiens, MDA435, 72 h, three days treatment
Method: as §1, §2

[6] = system: DU145 (human prostate carcinoma/lymphocytic leukemia); assay: Cell proliferation (MTS) assay, DU145; assay type: cell-based; details: Homo sapiens, DU-145, 72 h, three days treatment
Method: as §1, §2

[7] = system: T2, PI3K; assay: Fluorescence polarization assay for PI3K; assay type: biochemical; details: Table 2
T2 construct: PI3K FP IC50
Method: This assay is used to determine the IC50 of compounds of the present invention as it identifies inhibitors of PI3 kinase by measuring inhibition.
The assay is run by placing 5 μL of diluted enzyme per well, then 5 μL of diluted compound (or 9.5 μL enzyme then 0.5 μL compound in DMSO) is added and mixed. Then, 10 μL substrate is added to start the reaction. The samples are incubated 30-60 minutes, then the reaction is stopped by adding 20 μL stop/detector mix.
PI3K is diluted with reaction buffer (e.g., 5 μL or 7.5 μL PI3K into 620 μL reaction buffer), and 5 μL of diluted enzyme is used per well. 5 μL reaction buffer or drug diluted in buffer (e.g., 4 μL/100 so final DMSO is 1% in reaction) is added to each. The samples are mixed by pipetting up and down. Alternatively, the enzyme can be diluted to 1215 μL. In this case 9.8 μL is added per well and 0.2 μL compound is added in DMSO.
To prepare 1 mL of substrate solution, 955 μL reaction buffer, 40 μL PIP2, and 2.5 μL ATP are mixed. 10 μL of substrate is added to each well to start the reaction.
Stop/detector mix is prepared by mixing 4 μL Red detector and 1.6 μL or 2.0 μL GST-GRP with 1 mL Stop buffer, which results in 10 nM probe and 70 nM GST-GRP). 20 μL of the stop/detector mix is added to each well to stop the reaction. The plates are read after 30-90 minutes keeping the red probe solutions dark.
For the zero time point, stop/detector mix is added to the enzyme just before adding substrate. For an extra control, stop/detector mix is added to buffer (no enzyme) and substrate or to just buffer (no substrate).
The recommended reaction has 0.06 μL per 20 μL (0.015 μg/20 μL) or 0.01125 μg/15 μL or 0.75 μg/mL.
Plates are read on machines with filters for Tamra. The units are mP with no enzyme controls reading app 190-220 mP units. Fully active enzyme reduces fluorescence polarization down to 70-100 mP after 30 minutes. An active cpd raises the mP values halfway to control or to 120-150 mP units.

Row | Compound | IC50 ([1]; Table 1) [nM] | IC50 ([2]; Table 1) [µg/mL] | IC50 ([3]; Table 1) [µg/mL] | IC50 ([4]; Table 1) [µg/mL] | IC50 ([5]; Table 1) [µg/mL] | IC50 ([6]; Table 1) [µg/mL] | IC50 ([1]; Table 2) [nM] | IC50 ([3]; Table 2) [µg/mL] | IC50 ([4]; Table 2) [µg/mL] | IC50 ([5]; Table 2) [µg/mL] | IC50 ([6]; Table 2) [µg/mL] | IC50 [7] [nM] | IC50 ([2]; Table 2) [µg/mL]
1 | COC[C@H]1OC(=O)/C(=C/N(C)C2CCCCC2)C2=C(O)C(=O)C3=C([C@H](OC(C)=O)C[C@@]4(C)C3CC[C@@H]4O)[C@]21C (stereo partly drawn) [Compound 9, (1E,4S,4aR,5R,6aS,7S)-1-{[cyclohexyl(methyl)amino]methylene}-7,11-dihydroxy-4-(methoxymethyl)-4a,6a-dimethyl-2,10-dioxo-1,2,4,4a,5,6,6a,7,8,9,9a,10-dodecahydroindeno[4,5-h]isochromen-5-yl acetate] | 86500 | > 0.1 | 9.5 | 10 | 15 | 13 |  |  |  |  |  |  | 
2 | COC[C@H]1OC(=O)/C(=C/N2CCN(Cc3ccccc3)CC2)C2=C(O)C(=O)C3=C([C@H](OC(C)=O)C[C@@]4(C)C3CC[C@@H]4O)[C@]21C (stereo partly drawn) [Compound 10, (1E,4S,4aR,5R,6aS,7S)-1-[(4-benzylpiperazin-1-yl)methylene]-7,11-dihydroxy-4-(methoxymethyl)-4a,6a-dimethyl-2,10-dioxo-1,2,4,4a,5,6,6a,7,8,9,9a,10-dodecahydroindeno[4,5-h]isochromen-5-yl acetate] | 890 | 0.02 | 1 | 1.8 | > 15 | 15 |  |  |  |  |  |  | 
3 | COC[C@H]1OC(=O)/C(=C/N2CCCCC2)C2=C(O)C(=O)C3=C([C@H](OC(C)=O)C[C@@]4(C)C3CC[C@@H]4O)[C@]21C (stereo partly drawn) [Compound 11, (1E,4S,4aR,5R,6aS,7S)-7,11-dihydroxy-4-(methoxymethyl)-4a,6a-dimethyl-2,10-dioxo-1-(piperidin-1-ylmethylene)-1,2,4,4a,5,6,6a,7,8,9,9a,10-dodecahydroindeno[4,5-h]isochromen-5-yl acetate] | 1900 | 0.02 | 0.8 | 1.8 | > 15 | 15 |  |  |  |  |  |  | 
4 | COC[C@H]1OC(=O)/C(=C/N2CCc3ccccc3C2)C2=C(O)C(=O)C3=C([C@H](OC(C)=O)C[C@@]4(C)C3CC[C@@H]4O)[C@]21C (stereo partly drawn) [Compound 12, (1E,4S,4aR,5R,6aS,7S)-1-(3,4-dihydroisoquinolin-2(1H)-ylmethylene)-7,11-dihydroxy-4-(methoxymethyl)-4a,6a-dimethyl-2,10-dioxo-1,2,4,4a,5,6,6a,7,8,9,9a,10-dodecahydroindeno[4,5-h]isochromen-5-yl acetate] | 3190 | 0.1 | 2.8 | 6 | > 15 | > 15 |  |  |  |  |  |  | 
5 | COC[C@H]1OC(=O)/C(=C/N2CCN(c3ccccc3)CC2)C2=C(O)C(=O)C3=C([C@H](OC(C)=O)C[C@@]4(C)C3CC[C@@H]4O)[C@]21C (stereo partly drawn) [Compound 13, (1E,4S,4aR,5R,6aS,7S)-7,11-dihydroxy-4-(methoxymethyl)-4a,6a-dimethyl-2,10-dioxo-1-[(4-phenylpiperazin-1-yl)methylene]-1,2,4,4a,5,6,6a,7,8,9,9a,10-dodecahydroindeno[4,5-h]isochromen-5-yl acetate] | 607 | 0.05 | 0.8 | 2 | > 15 | 15 | 776 | 0.33 | 3.5 | 13 | 17 |  | 
6 | COC[C@H]1OC(=O)/C(=C/N2CCN(C)CC2)C2=C(O)C(=O)C3=C([C@H](OC(C)=O)C[C@@]4(C)C3CC[C@@H]4O)[C@]21C (stereo partly drawn) [Compound 14, (1E,4S,4aR,5R,6aS,7S)-7,11-dihydroxy-4-(methoxymethyl)-4a,6a-dimethyl-1-[(4-methylpiperazin-1-yl)methylene]-2,10-dioxo-1,2,4,4a,5,6,6a,7,8,9,9a,10-dodecahydroindeno[4,5-h]isochromen-5-yl acetate] | 829 | 0.02 | 0.58 | 2 | > 15 | 15 |  |  |  |  |  |  | 
7 | COC[C@H]1OC(=O)/C(=C/N2CCC(c3ccccc3)CC2)C2=C(O)C(=O)C3=C([C@H](OC(C)=O)C[C@@]4(C)C3CC[C@@H]4O)[C@]21C (stereo partly drawn) [Compound 15, (1E,4S,4aR,5R,6aS,7S)-7,11-dihydroxy-4-(methoxymethyl)-4a,6a-dimethyl-2,10-dioxo-1-[(4-phenylpiperidin-1-yl)methylene]-1,2,4,4a,5,6,6a,7,8,9,9a,10-dodecahydroindeno[4,5-h]isochromen-5-yl acetate] | 2450 | 0.02 | 0.9 | 2.3 | > 15 | 15 |  |  |  |  |  |  | 
8 | CCN(/C=C1/C(=O)O[C@H](COC)[C@@]2(C)C1=C(O)C(=O)C1=C2[C@H](O)C[C@]2(C)[C@@H](O)CC[C@@H]12)CC [Compound 50, (1E,4S,4aR,5R,6aS,7S,9aR)-1-[(diethylamino)methylene]-5,7,11-trihydroxy-4-(methoxymethyl)-4a,6a-dimethyl-4a,5,6,6a,7,8,9,9a-octahydroindeno[4,5-h]isochromene-2,10(1H,4H)-dione] |  |  |  |  |  |  |  | 0.25 (≈ 0.542 µM) | 2.5 (≈ 5.42 µM) |  |  | 7580 | > 0.1
